For data set [1], the system named is MCF-7. The note with it: literature values, cited from earlier work.
The subject of data set [2] is Human tumor cell lines MCF-7 (breast adenocarcinoma). Kind of data set: Cell-growth inhibition assay (MTT cell proliferation assay, 4 days). In kind it is cell-based. Particulars: MCF-7, 4 days incubation. On the procedure:
Cells were plated at a density of 5000 cells/well.
Results are gathered in table 3 hereinafter. The results are shown on a molar basis (IC50 values, in µM) as well as on a per-bisphosphonate basis, which is more logical when comparisons are to be made with the pure bisphosphonates.
On the technique in general: Tetrazolium assays rely on reduction of a dye to a coloured formazan, in cell work by metabolically active cells.

Data set [3] deals with MCF-7. As to the kind of experiment: Cell growth "rescue" experiments with geranylgeraniol (GGOH). Format: cell-based, Human. The method, then: Addition of geranylgeraniol (GGOH) was tested on Mo4Zol2Mn.
Protocol Cell growth "rescue" experiments with geranylgeraniol were carried out as described previously, and namely in Y. Zhang, et al J. Am. Chem. Soc. 2009, 131, 51.
An increase in the IC50 indicates a direct role for the bisphosphonate moiety in cell growth inhibition.

A short description of data set [4]: Solubility in water (remark in the solid state NMR section). Format: physicochemical. The text has this:
The broadening could be due either to the low crystallinity in Mo12(AlePy)4Pt4 and/or, a dynamic disorder, since we also observe a much less efficient CP transfer in CPMAS experiments when compared with Mo12(AlePy)4.

Setting [5] is: measurement conditions not strictly identical to Table 3, read-out: IC50.
The mark [6] stands for this setting: per bisphosphonate, read-out: IC50 per BP.

Like-named read-outs stand apart in the source and are kept apart here.

One may read the IC50 as the point on the concentration scale where inhibition reaches its midpoint.

As to `NCCCC(O)(P(=O)(O)O)P(=O)(O)O` [Ale, alendronate], the half-inhibitory concentration (IC50) in the data set on MCF-7 [1] (setting [5]) is 130 ± 2.2 µM; in the data set on MCF-7 [1] (setting [6]) it was 130 µM.

For the compound `[Cl][Mn][Cl]` [MnCl2], the half-inhibitory concentration (IC50) was approximately 740 µM in data set [2] (molar basis, listed as Mn(II)Cl2, read-out: IC50) and 740 ± 140 µM in data set [2] (molar basis, read-out: IC50).

Turning to `O=P(O)(O)C(O)(Cn1ccnc1)P(=O)(O)O` [Zol, zoledronate], the concentration for half-maximal inhibition (IC50) in the data set with MCF-7 [3] (Homo sapiens, MCF7, with addition of geranylgeraniol (GGOH), read-out: IC50 +GGOH) is 48 µM; in the data set with MCF-7 [3] (Homo sapiens, MCF7, without GGOH, read-out: IC50), 15 µM; in data set [2] (Homo sapiens, MCF7, 96 h, molar basis, read-out: IC50) it was 15 ± 2.6 µM; in data set [2] (Homo sapiens, MCF7, 96 h, per-bisphosphonate basis, read-out: IC50 per BP), 15 ± 2.6 µM; in the data set on MCF-7 [1] (setting [5]), 7.7 ± 2.6 µM; with MCF-7 [1] (setting [6]), 7.7 µM.

For “Na3{Na(Mo3O8)4[O3PCC3H6NH2CH2(C5H5N)(O)PO3]4} .25H20 [Mo12(AlePy)4]”, the solubility in water entry in data set [4] is “essentially insoluble in water”.

Turning to “Rb(NH4)4[(Mo2O6)2(O3PC(CH2C3H4N2)(O)PO3)2Mn].14H2O [Mo4Zol2Mn]”, the half-inhibitory concentration (IC50) with MCF-7 [3] (with addition of geranylgeraniol (GGOH), read-out: IC50 +GGOH) was 7.6 µM; with MCF-7 [3] (without GGOH, read-out: IC50), 1.3 µM; in data set [2] (molar basis, read-out: IC50) it was 1.3 ± 0.24 µM; in data set [2] (per-bisphosphonate basis, read-out: IC50 per BP), 2.6 ± 0.48 µM.
